Literature values as cited in patent US20070286875A1 (Morton Grove Pharmaceuticals, Inc., priority 2006, published 2007).

How the values were obtained:
[1] = 10 mg once daily with erythromycin, cimetidine, ketoconazole
[2] = tested on: H1-receptors

- binding to peripheral versus central nervous system H1-receptors [2]: preferential binding to peripheral
Compound: CCOC(=O)N1CCC(=C2c3ccc(Cl)cc3CCc3cccnc32)CC1 [loratadine, ethyl 4-(8-chloro-5,6-dihydro-11H-benzo[5,6]cyclohepta[1,2-b]pyridin-11-ylidene)-1-piperidinecarboxylate]
- changes in safety profile on co-administration [1]: no clinically relevant changes
